Reference: patent US11066369B2, “N-(pyridin-2-yl)pyridine-sulfonamide derivatives and their use in the treatment of disease” (Novartis AG, priority 2016, dated 2021)

Tests used:
[1] = biological target: T1, horseradish peroxidase (HRP) tagged delF508-CFTR (Homo sapiens, UniProt P13569, DEL508-508); assay: Measurement of delF508-CFTR-HRP surface expression in CFBE41o- cells; format: cell-based; details: delF508-CFTR-HRP surface expression, CFBE41o- cells; for Emax: read-out: DelF508-CFTR-HRP Amax %; for EC50: read-out: DelF508-CFTR-HRP EC50;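 as to DelF508-CFTR-HRP Amax %: percent efficacy relative to reference corrector lumacaftor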
T1 construct: expressed in transfected cells
T1 sequence (P13569 with tags, fused parts or gaps DEL508-508): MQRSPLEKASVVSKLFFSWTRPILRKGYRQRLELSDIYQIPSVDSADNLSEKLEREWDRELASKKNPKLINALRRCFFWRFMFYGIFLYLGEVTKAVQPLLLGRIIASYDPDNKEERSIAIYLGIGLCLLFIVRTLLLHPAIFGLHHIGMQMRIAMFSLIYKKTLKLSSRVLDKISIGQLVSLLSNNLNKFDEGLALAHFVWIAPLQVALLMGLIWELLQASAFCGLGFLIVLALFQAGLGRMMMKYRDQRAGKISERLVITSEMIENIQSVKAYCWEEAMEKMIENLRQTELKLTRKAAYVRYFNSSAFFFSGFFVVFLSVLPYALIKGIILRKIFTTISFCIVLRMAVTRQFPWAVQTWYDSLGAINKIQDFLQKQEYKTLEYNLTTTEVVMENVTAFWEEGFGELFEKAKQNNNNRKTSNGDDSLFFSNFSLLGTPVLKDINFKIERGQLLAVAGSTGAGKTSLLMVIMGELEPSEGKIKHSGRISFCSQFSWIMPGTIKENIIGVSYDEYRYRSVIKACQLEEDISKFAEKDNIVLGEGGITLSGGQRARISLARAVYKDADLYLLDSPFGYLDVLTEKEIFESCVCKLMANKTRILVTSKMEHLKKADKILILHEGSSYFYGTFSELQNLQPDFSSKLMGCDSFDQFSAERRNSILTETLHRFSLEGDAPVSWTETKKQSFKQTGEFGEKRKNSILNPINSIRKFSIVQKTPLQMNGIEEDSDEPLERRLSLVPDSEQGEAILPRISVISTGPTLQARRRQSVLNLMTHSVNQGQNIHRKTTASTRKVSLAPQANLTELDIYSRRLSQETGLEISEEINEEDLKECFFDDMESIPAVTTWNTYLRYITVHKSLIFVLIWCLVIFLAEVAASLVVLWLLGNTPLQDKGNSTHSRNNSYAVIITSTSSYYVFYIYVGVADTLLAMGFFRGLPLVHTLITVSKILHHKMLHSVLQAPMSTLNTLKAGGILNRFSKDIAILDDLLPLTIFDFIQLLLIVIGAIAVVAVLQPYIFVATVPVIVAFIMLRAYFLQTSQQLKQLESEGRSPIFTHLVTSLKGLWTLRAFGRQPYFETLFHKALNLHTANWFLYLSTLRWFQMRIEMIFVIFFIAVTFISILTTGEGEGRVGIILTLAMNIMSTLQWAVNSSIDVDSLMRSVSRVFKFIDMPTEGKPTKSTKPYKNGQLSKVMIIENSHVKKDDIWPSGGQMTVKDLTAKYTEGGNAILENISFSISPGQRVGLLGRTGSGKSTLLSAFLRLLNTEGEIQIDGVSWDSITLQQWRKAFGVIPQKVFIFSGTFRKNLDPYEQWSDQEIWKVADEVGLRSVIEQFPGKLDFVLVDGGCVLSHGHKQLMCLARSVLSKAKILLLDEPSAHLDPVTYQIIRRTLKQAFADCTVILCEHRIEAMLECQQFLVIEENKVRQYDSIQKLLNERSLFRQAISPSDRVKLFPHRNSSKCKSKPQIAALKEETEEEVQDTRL
Summary of the method: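 CFBE41o- bronchial epithelial cells stably expressing delF508-CFTR with HRP in the fourth extracellular loop; expression induced 48h with 500 ng/mL doxycycline, then compounds added (top 10 μM, 10-point 3-fold series, ≤0.5% DMSO) for 24h at 37° C. Surface HRP measured by luminescence with cell-impermeant substrate; EC50 from logistic fit of triplicates, plate-normalized to lowest concentration; efficacy also relative to a reference corrector.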

[2] = biological target: T2, delF508-CFTR (Homo sapiens, UniProt P13569, DEL508-508); assay: Measurement of delF508-CFTR functional activity in primary human bronchial epithelial cells (HBECs) using Multi-Transepithelial Clamp Circuit (MTECC-24) assay; format: cell-based; details: primary CF HBECs; for MTECC24 CFHBEC- Amax %: test compound added 24h before assay plus potentiator, relative to reference combination (2 μM corrector + 0.5 μM potentiator); for EC50: test compound added 24h before assay, in the presence of potentiator, mean of at least two replicates, read-out: MTECC24 CFHBEC- EC50
T2 construct: functional activity of the CFTR channel (Chloride ion transport) in patient derived primary human bronchial epithelial cells; host or cells: patient-derived primary human bronchial epithelial cells (delF508-CFTR)
T2 sequence (P13569 with tags, fused parts or gaps DEL508-508): as above
Summary of the method: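 Patient-derived primary delF508-CFTR HBECs, differentiated at air-liquid interface ~2 weeks, treated basolaterally with compound for 24 h, then apical and basolateral compound in HEPES pH 7.4 assay medium. Equivalent short-circuit current (Ieq) recorded on MTECC-24 with sequential amiloride, forskolin, potentiator and INH-172; normalized to 0.1% DMSO, EC50 from curve fit.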

Structure (SMILES)	Emax [1] [%]	EC50 [1] [nM]	MTECC24 CFHBEC- Amax % [2] [%]	EC50 [2] [nM]
Cc1ccc(F)cc1-c1nc(NS(=O)(=O)c2cccc(N3CCC(C(=O)O)C3)n2)ccc1C(F)(F)F (stereo not drawn) [Example 300, 1-(6-(N-(6-(5-fluoro-2-methylphenyl)-5-(trifluoromethyl)pyridin-2-yl)sulfamoyl)pyridin-2-yl) pyrrolidine-3-carboxylic Acid]	626	3270	43.5	12.8
Cc1ccccc1-c1nc(NS(=O)(=O)c2cccc(N3CCC4(CCC[C@H]4N)CC3)n2)ccc1C(F)(F)F [Example 304, (R)-6-(1-amino-8-azaspiro[4.5]decan-8-yl)-N-(6-(o-tolyl)-5-(trifluoromethyl)pyridin-2-yl)pyridine-2-sulfonamide]	421	3920	63.4	8.5
Cc1ccccc1-c1nc(NS(=O)(=O)c2cccc(N3CCC4(CCC(CO)[C@H]4N)CC3)n2)ccc1C(F)(F)F (stereo partly drawn) [Example 307, 6-((1R)-1-amino-2-(hydroxymethyl)-8-azaspiro[4.5]decan-8-yl)-N-(6-(o-tolyl)-5-(trifluoromethyl)pyridin-2-yl)pyridine-2-sulfonamide]	259	3760	61.5	45.8
Cc1c(C#N)cccc1-c1nc(NS(=O)(=O)c2cccc(N3CC(C)(O)C3)n2)ccc1C(F)(F)F [Example 308, N-(6-(3-cyano-2-methylphenyl)-5-(trifluoromethyl)pyridin-2-yl)-6-(3-hydroxy-3-methylazetidin-1-yl)pyridine-2-sulfonamide]	233	3750	60.7	207
Cc1c(C#N)cccc1-c1nc(NS(=O)(=O)c2cccc(N3CC(C)(O)C3)n2)ccc1Cl [Example 309, N-(5-chloro-6-(3-cyano-2-methylphenyl)pyridin-2-yl)-6-(3-hydroxy-3-methylazetidin-1-yl)pyridine-2-sulfonamide]	194	3790	75.6	210
Cc1ccc(C#N)cc1-c1nc(NS(=O)(=O)c2cccc(N3CCNCC3)n2)ccc1C(F)(F)F [Example 311, N-(6-(5-cyano-2-methylphenyl)-5-(trifluoromethyl)pyridin-2-yl)-6-(piperazin-1-yl)pyridine-2-sulfonamide]	179	3270	61.7	220
Cc1ccc(C#N)cc1-c1nc(NS(=O)(=O)c2cccc(N3CCNCC3)n2)ccc1Cl [Example 312, N-(5-chloro-6-(5-cyano-2-methylphenyl)pyridin-2-yl)-6-(piperazin-1-yl)pyridine-2-sulfonamide]	167	3970	49.8	458
Cc1ccc(F)cc1-c1nc(NS(=O)(=O)c2cccc(N3CCC(O)C3C(=O)O)n2)ccc1C(F)(F)F (stereo not drawn) [Example 315, 1-(6-(N-(6-(5-fluoro-2-methylphenyl)-5-(trifluoromethyl)pyridin-2-yl)sulfamoyl)pyridin-2-yl)-3-hydroxypyrrolidine-2-carboxylic Acid]	269	3290	60.9	52
Cc1ccc(F)cc1-c1nc(NS(=O)(=O)c2ccnc(N3CCOC[C@H]3C)c2)ccc1Cl [Example 318, (R)—N-(5-chloro-6-(5-fluoro-2-methylphenyl)pyridin-2-yl)-2-(3-methylmorpholino)pyridine-4-sulfonamide]	318	3170	48.7	77.6
Cc1c(F)cccc1-c1nc(NS(=O)(=O)c2ccnc(N3CCOC[C@H]3C)c2)ccc1Cl [Example 319, (R)—N-(5-chloro-6-(3-fluoro-2-methylphenyl)pyridin-2-yl)-2-(3-methylmorpholino)pyridine-4-sulfonamide]	195	3480	67.1	25

More lines, in order of falling EC50 [1], values ahead:

Emax [1] [%]	EC50 [1] [nM]	MTECC24 CFHBEC- Amax % [2] [%]	EC50 [2] [nM]	Structure (SMILES)
491	3170	65.5	71.7	Cc1ccccc1-c1nc(NS(=O)(=O)c2cccc(N3CC4(C3)OCCC4N)n2)ccc1C(F)(F)F (stereo not drawn) [Example 303, 6-(8-amino-5-oxa-2-azaspiro[3.4]octan-2-yl)-N-(6-(o-tolyl)-5-(trifluoromethyl)pyridin-2-yl)pyridine-2-sulfonamide]
418	3050	88.1	31.5	Cc1ccccc1-c1nc(NS(=O)(=O)c2cccc(N3CCC4(CC[C@@H]4N)CC3)n2)ccc1C(F)(F)F [Example 306, (S)-6-(1-amino-7-azaspiro[3.5]nonan-7-yl)-N-(6-(o-tolyl)-5-(trifluoromethyl)pyridin-2-yl)pyridine-2-sulfonamide]
312	2630	81.3	44.3	Cc1ccc(C#N)cc1-c1nc(NS(=O)(=O)c2cccc(N3CC(C)(O)C3)n2)ccc1Cl [Example 305, N-(5-chloro-6-(5-cyano-2-methylphenyl)pyridin-2-yl)-6-(3-hydroxy-3-methylazetidin-1-yl)pyridine-2-sulfonamide]
554	2440	61.7	9.4	Cc1ccc(C#N)cc1-c1nc(NS(=O)(=O)c2cccc(N3CC(C)(O)C3)n2)ccc1C(F)(F)F [Example 299, N-(6-(5-cyano-2-methylphenyl)-5-(trifluoromethyl)pyridin-2-yl)-6-(3-hydroxy-3-methylazetidin-1-yl)pyridine-2-sulfonamide]
450	2360	50.5	12.1	Cc1ccc(F)cc1-c1nc(NS(=O)(=O)c2cccc(O[C@@H]3COC[C@@H]3O)n2)ccc1Cl [Example 289, N-(5-chloro-6-(5-fluoro-2-methylphenyl)pyridin-2-yl)-6-(((3R,4S)-4-hydroxytetrahydrofuran-3-yl)oxy)pyridine-2-sulfonamide]
530	2320	74.4	18.3	Cc1ccccc1-c1nc(NS(=O)(=O)c2cccc(N3CCNC4(CC4)C3)n2)ccc1C(F)(F)F [Example 302, 6-(4,7-diazaspiro[2.5]octan-7-yl)-N-(6-(o-tolyl)-5-(trifluoromethyl)pyridin-2-yl)pyridine-2-sulfonamide]
545	2220	74.2	126	Cc1ccc(F)cc1-c1nc(NS(=O)(=O)c2ccnc(N3CC(C)(O)C3)c2)ccc1C(F)(F)F [Example 320, N-(6-(5-fluoro-2-methylphenyl)-5-(trifluoromethyl)pyridin-2-yl)-2-(3-hydroxy-3-methylazetidin-1-yl)pyridine-4-sulfonamide]
413	1720	49.1	18.3	Cc1ccc(F)cc1-c1nc(NS(=O)(=O)c2ccnc(N3CCOC[C@H]3C)c2)ccc1C(F)(F)F [Example 321, (R)—N-(6-(5-fluoro-2-methylphenyl)-5-(trifluoromethyl)pyridin-2-yl)-2-(3-methylmorpholino)pyridine-4-sulfonamide]
495	1710	69.5	34.1	Cc1cccc(C)c1-c1nc(NS(=O)(=O)c2cccc(O[C@@H]3CO[C@H](CO)C3)n2)ccc1Cl [Example 288, N-[5-chloro-6-(2,6-dimethylphenyl)pyridin-2-yl]-6-{[(3S,5S)-5-(hydroxymethyl)oxolan-3-yl]oxy}pyridine-2-sulfonamide]
	1590	96.4	10	Cc1ccccc1-c1nc(NS(=O)(=O)c2cccc(N3CC[C@H](O)[C@H]3C)n2)ccc1C(F)(F)F [Example 314, 6-((2R,3S)-3-hydroxy-2-methylpyrrolidin-1-yl)-N-(6-(o-tolyl)-5-(trifluoromethyl)pyridin-2-yl)pyridine-2-sulfonamide]
847	1490	153.1	23.9	Cc1cccc(C)c1-c1nc(NS(=O)(=O)c2cccc(N[C@H]3C[C@@H](O)C3)n2)ccc1Cl [Example 286, N-[5-chloro-6-(2,6-dimethylphenyl)pyridin-2-yl]-6-{[(1s,3s)-3-hydroxycyclobutyl]amino}pyridine-2-sulfonamide]
384	1410	74.8	7.1	Cc1cccc(C)c1-c1nc(NS(=O)(=O)c2cccc(N[C@H]3C[C@H](O)C3)n2)ccc1Cl [Example 287, N-[5-chloro-6-(2,6-dimethylphenyl)pyridin-2-yl]-6-{[(1r,3r)-3-hydroxycyclobutyl]amino}pyridine-2-sulfonamide]
